The text below walks through data of PMC8508980, “Design, Synthesis and Anticancer Profile of New 4-(1H-benzo[d]imidazol-1-yl)pyrimidin-2-amine-Linked Sulfonamide Derivatives with V600EBRAF Inhibitory Effect” (International Journal of Molecular Sciences, 2021).

In one test the test system is NCI 60 cancer cell lines. Kind of test: NCI 60 cell line screen, mean over panel. It counts as cell-based, human. The method, then: (§1) Anticancer profiling over a panel of 60 cancer cell lines was carried out at the National Cancer Institute (NCI), Bethesda, Maryland, USA, https://dtp.cancer.gov/discovery_development/nci-60/methodology.htm (Last visit 22 September 2021), using the standard procedure (detailed procedure is located in the Supplementary Information page 50 s).
(§2) NCI standard procedure for 60 cell lines assay
The human tumor cell lines of the cancer screening panel are grown in RPMI 1640 mediu m containing 5% fetal bovine serum and 2 mM L-glutamine. […]
Following drug addition, the plates are incubated for an additional 48 h at 37°C, 5 % CO2, 95 % air, and 100 % relative humidity. […] Bound stain is subsequently solubilized with 10 mM trizma base, and the absorbance is read on an automated plate reader at a wavelength of 515 nm. […] Using the seven absorbance measurements [time zero, (Tz), control growth, (C), and test growth in the presence of drug at the five concentration levels (Ti)], the percentage growth is calculated at each of the drug concentrations levels. Percentage growth inhibition is calculated as: […]
Three dose response parameters are calculated for each experimental agent. […]
resulting in a 50% reduction in the net protein increase (as measured by SRB staining) in control cells during the drug incubation. […]
(§3) (TGI) is calculated from Ti = Tz.

Test [1] relates to T-47D cells. The test is described as follows: MTT assay IC50 over T-47D. It counts as cell-based. Particulars: Homo sapiens, T47D. As for the experimental part: (§4) In the beginning, the IC50 of compound 12e over T-47D (American Type Culture Collection, US) was determined using MTT assay, and the same procedure was applied for A375 and SK-MEL-5. T-47D cells (10^5 cells) were treated with 12e (5 µM) and incubated for 48h. Cells were collected by trypsinization, washed two times with ice-cold PBS, and re-suspended in 60% cold ethanol and kept at 4 °C for 60 min. PBS was used to wash the fixed cells and was re-suspended in 1.0 mL of PBS containing 10µg/mL propidium iodide and 50 µg/mL RNAase A. Cells were incubated in the dark at 37 °C for 20min; then, DNA contents were analyzed using flow cytometric analysis using an FL2 (λex/em 535/617 nm) signal detector. For each sample, 12,000 events were acquired. The cell cycle distribution was obtained by using ACEA NovoExpress^TM software.

Test [2] deals with T-47D cells. Kind of test: Cell cycle analysis by flow cytometry (propidium iodide). Particulars: 5 µM. It counts as cell-based. As for the experimental part: The distribution of cell cycle was determined by flow cytometric assay after using propidium iodide to stain the DNA content of the treated cells. […] Meanwhile, the cells of the G2-phase decreased to 6% compared to 8% in the untreated cells.
as §4, with “T-47D cells (10^5 cells) were treated with 12e (5 µM) and incubated for 48h.” left out

The test system of the next test is colon cancer cell lines. The test is described as follows: NCI 60 screen, sub-panel mean. It counts as cell-based, human. Particulars: NCI-60, colon cancer sub-panel. The method, then: as §1, §2
(§5) The human tumor cell lines of the cancer screening panel are grown in RPMI 1640 mediu m containing 5% fetal bovine serum and 2 mM L-glutamine. For a typical screening experiment, cells are inoculated into 96 well microtiter plates in 100 μL at plating densities ranging from 5,000 to 40,000 cells/well depending on the doubling time of individual cell lines. After cell inoculation, the microtiter plates are incubated at 37° C, 5 % CO2, 95 % air and 100 % relative humidity for 24 h prior to addition of experimental drugs.
(§6) After 24 h, two plates of each cell line are fixed in situ with TCA, to represent a measurement of the cell population for each cell line at the time of drug addition (Tz). Experimental drugs are solubilized in dimethyl sulfoxide at 400-fold the desired final maximum test concentration (10 µM) and stored frozen prior to use. At the time of drug addition, an aliquot of frozen concentrate is thawed and diluted to twice the desired final maximum test concentration with co mp lete medium containing 50 μg/ml gentamicin. Additional four, 10-fold or ½ log serial dilutions are made to provide a total of five drug concentrations plus control. Aliquots of 100 μl of these different drug dilutions are added to the appropriate microtiter wells already containing 100 μl of medium, resulting in the required final drug concentrations.
(§7) Following drug addition, the plates are incubated for an additional 48 h at 37°C, 5 % CO2, 95 % air, and 100 % relative humidity. For adherent cells, the assay is terminated by the addition of cold TCA. Cells are fixed in situ by the gentle addition of 50 μl of cold 50 % (w/v) TCA (final concentration, 10 % TCA) and incubated for 60 minutes at 4°C. The supernatant is discarded, and the plates are washed five times with tap water and air dried. Sulforhodamine B (SRB) solution (100 μl) at 0.4 % (w/v) in 1 % acetic acid is added to each well, and plates are incubated for 10 minutes at room temperature. After staining, unbound dye is removed by washing five times with 1 % acetic acid and the plates are air dried. Bound stain is subsequently solubilized with 10 mM trizma base, and the absorbance is read on an automated plate reader at a wavelength of 515 nm. For suspension cells, the methodology is the same except that the assay is terminated by fixing settled cells at the bottom of the wells by g ently adding 50 μl of 80 % TCA (final concentration, 16 % TCA). Using the seven absorbance measurements [time zero, (Tz), control growth, (C), and test growth in the presence of drug at the five concentration levels (Ti)], the percentage growth is calculated at each of the drug concentrations levels. Percentage growth inhibition is calculated as:
(§8) [(Ti-Tz)/(C-Tz)] x 100 for concentrations for which Ti>/=Tz
(§9) [(Ti-Tz)/Tz] x 100 for concentrations for which Ti<Tz.
(§10) Three dose response parameters are calculated for each experimental agent. Growth inhibition of […]
(§11) resulting in a 50% reduction in the net protein increase (as measured by SRB staining) in control cells during the drug incubation. The drug concentration resulting in total growth inhibition […]
as §3

Another test relates to CNS cancer cell lines. The test is described as follows: NCI 60 screen, sub-panel mean. Particulars: NCI-60, CNS sub-panel. It counts as cell-based, human. As for the experimental part:
as §1, §2, §5, §6, §7, §8, §9, §10, §11, §3

Test [3] relates to melanoma cancer cell lines. The test is described as follows: NCI 60 screen, sub-panel mean. It counts as cell-based, human. Particulars: NCI-60, melanoma sub-panel. The method, then:
as §1, §2, §5, §6, §7, §8, §9, §10, §11, §3

pIC50: −log10 of the molar value.

As for `O=S(=O)(NCCNc1nccc(-n2cnc3ccccc32)n1)c1ccc(C(F)(F)F)cc1` [12e, N-(2-((4-(1H-benzo [d]imidazol-1-yl)pyrimidin-2-yl)amino)ethyl)-4-(trifluoromethyl)benzenesulfonamide], the “mean percent inhibition over 60-cell line panel” value with NCI 60 cancer cell lines is given as “around 50%”. Further, in the test with T-47D cells [1], the pIC50 is 5.27. For the same compound, in the test on T-47D cells [2] (control 14%), the “cells in S-phase, treated cells” value stood at 18%. The “cells in G1 phase, treated cells” value in the test with T-47D cells [2] (control 29%) is 31%. Besides, the “cells in G2-phase, treated cells” value in the test with T-47D cells [2] (untreated 8%) amounted to 6%. Besides, the mean percent inhibition in the test on colon cancer cell lines is 40%; in the test with CNS cancer cell lines, 50%; in test [3], 50%.
Turning to `O=S(=O)(NCCCNc1nccc(-n2cnc3ccccc32)n1)c1ccc(C(F)(F)F)cc1` [12l, N-(3-((4-(1H-benzo [d]imidazol-1-yl)pyrimidin-2-yl)amino)propyl)-4-(trifluoromethyl) benzenesulfonamide], in the test with colon cancer cell lines, the mean percent inhibition was determined as 30%.
